The assay deals with SARS-CoV-2 3CLpro (Severe acute respiratory syndrome coronavirus 2, UniProt P0DTD1). Nature of the assay: biochemical. The arrangement: Replicate_1 / Replicate_2 / mean / mean (LOPAC_screen_w_protease): unit not given here. The class given is biochemical.
Setting [1] is: sheet LOPAC_screen_w_protease, primary screen with protease, 5 µM, mean of two replicates.
Setting [2] is: sheet LOPAC_screen_w_protease, primary screen with protease, 5 µM, replicate 1.
Setting [3] is: sheet LOPAC_screen_w_protease, primary screen with protease, 5 µM, replicate 2.
[4] abbreviates: LOPAC1280 primary screen with protease, 5 µM compound, replicate 1.
[5] abbreviates: LOPAC1280 primary screen with protease, 5 µM compound, replicate 2.
[6] abbreviates: LOPAC1280 primary screen with protease, 5 µM compound, mean of two replicates.
Where [7] appears, read: sheet LOPAC_screen_w_protease, LOPAC1280 at 5 µM, mean of two replicates.
Where [8] appears, read: sheet LOPAC_screen_w_protease, LOPAC1280 at 5 µM, replicate 1.
[9] abbreviates: sheet LOPAC_screen_w_protease, LOPAC1280 at 5 µM, replicate 2.
Where [10] appears, read: 4 h, sheet LOPAC_screen_w_protease, primary screen with protease, compound at 5 µM, mean of two replicates, read-out: mean.
[11] abbreviates: 4 h, sheet LOPAC_screen_w_protease, primary screen with protease, compound at 5 µM, replicate 1, read-out: Replicate_1.
[12] abbreviates: 4 h, sheet LOPAC_screen_w_protease, primary screen with protease, compound at 5 µM, replicate 2, read-out: Replicate_2.
Setting [13] is: LOPAC1280 primary screen with protease, 5 µM compound, mean of the two replicates.
Setting [14] is: 4 h, sheet LOPAC_screen_w_protease, primary screen of LOPAC1280 at 5 µM with protease, mean of the two replicates, read-out: mean.
Where [15] appears, read: 4 h, sheet LOPAC_screen_w_protease, primary screen of LOPAC1280 at 5 µM with protease, replicate 1, read-out: Replicate_1.
Setting [16] is: 4 h, sheet LOPAC_screen_w_protease, primary screen of LOPAC1280 at 5 µM with protease, replicate 2, read-out: Replicate_2.
The mark [17] stands for this setting: 4 h, sheet LOPAC_screen_w_protease, LOPAC1280 primary screen at 5 µM, with protease, mean of the two replicates, read-out: mean.
Setting [18] is: 4 h, sheet LOPAC_screen_w_protease, LOPAC1280 primary screen at 5 µM, with protease, replicate 1, read-out: Replicate_1.
Where [19] appears, read: 4 h, sheet LOPAC_screen_w_protease, LOPAC1280 primary screen at 5 µM, with protease, replicate 2, read-out: Replicate_2.

Structures can show the parent of a compound that is named as a salt. Where two headings read alike, the source gives them in different places.

Take `CC[C@]1(O)C[C@@H]2CN(CCc3c([nH]c4ccccc34)[C@@](C(=O)OC)(c3cc4c(cc3OC)N(C)[C@H]3[C@@](O)(C(=O)OC)[C@H](OC(C)=O)[C@]5(CC)C=CCN6CC[C@]43[C@@H]65)C2)C1.O=S(=O)(O)O` [Vinblastine sulfate salt]: the mean under setting [1] is given as 0.3705. Besides, the Replicate_1 under setting [2] came out at 2.018. For the same molecule, under setting [3], the Replicate_2 is -1.277.
In the case of `Nc1ncnc2c1c(-c1ccc(Oc3ccccc3)cc1)cn2C1CCCC1`, for the setting “sheet LOPAC_screen_w_protease, LOPAC1280 primary screen at 5 µM, with protease, mean of the two replicates”, the mean was determined as 0.6123. The Replicate_1 (sheet LOPAC_screen_w_protease, LOPAC1280 primary screen at 5 µM, with protease, replicate 1) was 0.3054. Further, the Replicate_2 (sheet LOPAC_screen_w_protease, LOPAC1280 primary screen at 5 µM, with protease, replicate 2) is on record as 0.9192.
In the case of trans-(±)-ACPD, the “Replicate_1 (LOPAC_screen_w_protease)” value under setting [4] turned out to be 2.281. Further, the “Replicate_2 (LOPAC_screen_w_protease)” value under setting [5] turned out to be 1.598.
With `O=C(Nc1ccccc1)c1cc([N+](=O)[O-])ccc1Cl` [GW9662], the “mean (LOPAC_screen_w_protease)” value under setting [6] is given as 1.573. The “Replicate_1 (LOPAC_screen_w_protease)” value under setting [4] is on record as 2.013. For the same molecule, the “Replicate_2 (LOPAC_screen_w_protease)” value under setting [5] is listed as 1.1319.
Regarding `COc1cc(C(O)C(=O)O)ccc1O` (racemic) [(±)-Vanillylmandelic acid], the mean under setting [7] is reported as 1.1. In addition, the Replicate_1 under setting [8] turned out to be 2.648. For the same molecule, the Replicate_2 under setting [9] is -0.449.
Under setting [7], `CCCc1c(-c2ccc(O)cc2)nn(-c2ccc(O)cc2)c1-c1ccc(O)cc1` returned a mean of 1.246. The Replicate_1 under setting [8] came to 3.0422. In addition, under setting [9], the Replicate_2 was -0.5503.
Take `OC(CN1CCC(Cc2ccc(F)cc2)CC1)c1ccc(Cl)cc1` (stereo not drawn) [Eliprodil]: the inhibition at 5 µM came to 2.62% under setting [10], 2.73% under setting [11] and 2.52% under setting [12].
`CN(C)c1ccc(/C=C2\C(=O)Nc3ccccc32)cc1` [SU 4312] had a mean under setting [1] of 0.09243. For the same molecule, under setting [2], the Replicate_1 is 0.4934. For the same molecule, under setting [3], the Replicate_2 is given as -0.3085.
In the case of `CN1CCN(CC/C=C2/c3ccccc3Sc3ccc(S(=O)(=O)N(C)C)cc32)CC1.Cl` [Thiothixene hydrochloride], the “mean (LOPAC_screen_w_protease)” value under setting [6] worked out at 1.56. Under setting [4], the “Replicate_1 (LOPAC_screen_w_protease)” value is 2.053. In addition, the “Replicate_2 (LOPAC_screen_w_protease)” value under setting [5] came to 1.066.
For the molecule `CN(C)CC[C@@H](c1ccc(Br)cc1)c1ccccn1` [(+)-Brompheniramine maleate], the inhibition at 5 µM came out at 1.03% (4 h, sheet LOPAC_screen_w_protease, LOPAC1280 at 5 µM, mean of two replicates, read-out: mean); 0.743% (4 h, sheet LOPAC_screen_w_protease, LOPAC1280 at 5 µM, replicate 1, read-out: Replicate_1); 1.32% (4 h, sheet LOPAC_screen_w_protease, LOPAC1280 at 5 µM, replicate 2, read-out: Replicate_2).
On to `OC(CN1CCN(c2cccc(Cl)c2)CC1)C(c1ccccc1)c1ccccc1` (stereo not drawn) [BRL 15572], for which the “mean (LOPAC_screen_w_protease)” value under setting [13] turned out to be 1.912. The “Replicate_1 (LOPAC_screen_w_protease)” value under setting [4] was 0.6201. Also, under setting [5], the “Replicate_2 (LOPAC_screen_w_protease)” value came out at 3.204.
With `NCCCC(=O)O` [GABA], the “mean (LOPAC_screen_w_protease)” value under setting [6] worked out at 1.638. Also, the “Replicate_1 (LOPAC_screen_w_protease)” value under setting [4] amounted to 1.648. The “Replicate_2 (LOPAC_screen_w_protease)” value under setting [5] amounted to 1.628.
On to `CC1=C(/C=C/C(C)=C/C=C/C(C)=C/C(=O)Nc2ccc(O)cc2)C(C)(C)CCC1` [Retinoic acid p-hydroxyanilide], for which the mean (sheet LOPAC_screen_w_protease, primary screen with protease, mean of two replicates) came out at 2.295. For the same molecule, the Replicate_1 (sheet LOPAC_screen_w_protease, primary screen with protease, replicate 1) was 3.365. Under “sheet LOPAC_screen_w_protease, primary screen with protease, replicate 2”, this molecule returned a Replicate_2 of 1.2239.
`COc1ccc2c(c1)[C@@]13CCCC[C@H]1[C@@H](C2)NCC3.Cl` [3-Methoxy-morphanin hydrochloride] registered a Replicate_1 of 3.105, a Replicate_2 of 3.489 and a mean of 3.297.
Turning to `CC(=O)OCC1=C(C(=O)O)N2C(=O)[C@@H](NC(=O)CSc3ccncc3)[C@H]2SC1` [Cephapirin sodium], the inhibition at 5 µM was determined as 4.07% under setting [14], 3.36% under setting [15] and 4.79% under setting [16].
`NC(C(=O)O)C(O)C(=O)O` (racemic) [DL-threo-beta-hydroxyaspartic acid]: the “mean (LOPAC_screen_w_protease)” value under setting [13] is 2.095. Under setting [4], the “Replicate_1 (LOPAC_screen_w_protease)” value stood at 2.385. Besides, the “Replicate_2 (LOPAC_screen_w_protease)” value under setting [5] is reported as 1.804.
On to `CNC(=O)Oc1ccc2c(c1)[C@]1(C)CCN(C)[C@@H]1N2C` [(-)-Physostigmine], for which the inhibition at 5 µM is 3.4% under setting [14], 5.4% under setting [15] and 1.4% under setting [16].
For the molecule `NCCc1c[nH]c2ccccc12` [Tryptamine hydrochloride], the inhibition at 5 µM by setting is: under setting [17], 0.461%; under setting [18], 0.957%; under setting [19], -0.0349%.
Taken in the same sequence, the figures for `O=C1NCN(c2ccccc2)C12CCN(CC1COc3ccccc3O1)CC2` (stereo not drawn) [Spiroxatrine] were 0.522%, 1.86% and -0.819%.
As to `Cl.O=S(=O)(c1cccc2c(I)cccc12)N1CCCNCC1` [ML-7], the Replicate_1 came to 2.299, the Replicate_2 is reported as 4.928 and the mean was 3.614.
In the case of `N#CC(C#N)=Cc1ccc(O)c(O)c1` [Tyrphostin 23], the inhibition at 5 µM is, setting by setting: under setting [10], 3.07%; under setting [11], 2.09%; under setting [12], 4.04%.
For the molecule `NCCCS(=O)(=O)O.[Na]` [3-Amino-1-propanesulfonic acid sodium], the mean (sheet LOPAC_screen_w_protease, LOPAC1280 primary screen with protease, 5 µM compound, mean of the two replicates) came to 5.742. Where the note is “sheet LOPAC_screen_w_protease, LOPAC1280 primary screen with protease, 5 µM compound, replicate 1”, this molecule had a Replicate_1 of 6.514. The molecule also came in with a Replicate_2 (sheet LOPAC_screen_w_protease, LOPAC1280 primary screen with protease, 5 µM compound, replicate 2) of 4.97.
Consider `CCCOc1ccccc1-c1nc2nn[nH]c2c(=O)[nH]1` [Zaprinast], for which the inhibition at 5 µM runs as follows: (4 h, LOPAC1280 primary screen with protease, 5 µM compound, replicate 1, read-out: Replicate_1 (LOPAC_screen_w_protease)) 2.02%; (4 h, LOPAC1280 primary screen with protease, 5 µM compound, replicate 2, read-out: Replicate_2 (LOPAC_screen_w_protease)) 1.12%. Also, the “mean (LOPAC_screen_w_protease)” value under setting [6] was determined as 1.567.
Take `COc1c2c(nc3ccccc13)OC(C(C)(O)CO)C2` (stereo not drawn) [Dubinidine]: the mean (sheet LOPAC_screen_w_protease, primary screen with protease, compound at 5 µM, mean of two replicates) came out at 2.93. The Replicate_1 (sheet LOPAC_screen_w_protease, primary screen with protease, compound at 5 µM, replicate 1) is 4.833. Further, the Replicate_2 (sheet LOPAC_screen_w_protease, primary screen with protease, compound at 5 µM, replicate 2) stood at 1.026.
Where the note is “sheet LOPAC_screen_w_protease, primary screen of LOPAC1280 at 5 µM with protease, mean of the two replicates”, `CC(C)c1ccc2c(c1)c(SC(C)(C)C)c(CC(C)(C)C(=O)O)n2Cc1ccc(Cl)cc1` [MK-886] registered a mean of 3.5784. Under “sheet LOPAC_screen_w_protease, primary screen of LOPAC1280 at 5 µM with protease, replicate 1”, this molecule gave a Replicate_1 of 4.4392. Also, the Replicate_2 (sheet LOPAC_screen_w_protease, primary screen of LOPAC1280 at 5 µM with protease, replicate 2) came out at 2.7176.
On to `CCCCNc1cc(C(=O)O)cc(S(N)(=O)=O)c1Oc1ccccc1` [Bumetanide], for which the inhibition at 5 µM (4 h, read-out: Replicate_1) was -0.596%; the inhibition at 5 µM (4 h, read-out: Replicate_2) was 1.11%; the inhibition at 5 µM (4 h, read-out: mean) came out at 0.258%.
As for `O=C(O)Cc1ccc(O)c(O)c1` [3,4-Dihydroxyphenylacetic acid], the inhibition at 5 µM (4 h, read-out: Replicate_1 (LOPAC screen with protease)) turned out to be 41.7%; the inhibition at 5 µM (4 h, read-out: Replicate_2 (LOPAC screen with protease)) is 44.4%; the inhibition at 5 µM (4 h, read-out: mean (LOPAC screen with protease)) came out at 43.1%.
As for `Cc1[nH]c(=O)c(C#N)cc1-c1ccncc1` [Milrinone], the inhibition at 5 µM runs as follows: (4 h, sheet LOPAC_screen_w_protease, LOPAC1280 primary screen with protease, 5 µM compound, mean of the two replicates, read-out: mean) 4.26%; (4 h, sheet LOPAC_screen_w_protease, LOPAC1280 primary screen with protease, 5 µM compound, replicate 1, read-out: Replicate_1) 3.12%; (4 h, sheet LOPAC_screen_w_protease, LOPAC1280 primary screen with protease, 5 µM compound, replicate 2, read-out: Replicate_2) 5.4%.
For the molecule `CC(C)(C)NC[C@H](O)COc1nsnc1N1CCOCC1.O=C(O)/C=C\C(=O)O` [S(-)-Timolol maleate], the mean under setting [1] came to 0.01613. This molecule displayed a Replicate_1 under setting [2] of 1.756. Moreover, under setting [3], the Replicate_2 is -1.724.
As to `O=c1cc(-c2ccc(O)c(O)c2)oc2cc(O)cc(O)c12` [luteolin, reference compound], the inhibition at 5 µM reads like this: (4 h, read-out: Replicate_1) 0.919%; (4 h, read-out: Replicate_2) 1.72%; (4 h, read-out: mean) 1.32%; (read-out: inhibition of 3CLpro in the primary screen) 1.3%.

The record behind these values is paper PMC7587356, “High-Throughput Screening for Inhibitors of the SARS-CoV-2 Protease Using a FRET-Biosensor” (Molecules, 2020).
